PMC12734986 (Marine Drugs, 2025)
Residues, ends and D or L forms follow the SMILES beside them.

Key:
[1] = test system: NSCLC cells (A549, H460, H1299); experiment: Colony formation assay; assay type: cell-based, human; conditions: 10 and 20 μM, 7 days, crystal violet, all NSCLCs
Protocol: (§1) Lung cancer cells were seeded at a density of 10^3 cells in a 35 mm dish and cultured with the peptide for 7 days, until macroscopic colonies formed. Following incubation, the cells were washed and stained with 0.1% crystal violet for 30 min, and the colonies were imaged and counted. Cell morphology was observed and captured at ×10 magnification using an inverted light microscope.

lung cancer cells [2] = experiment: Cell morphology by inverted light microscope; assay type: cell-based, human; conditions: 10 μM MP28, lung cancer cells
Protocol: as §1

horse blood erythrocytes = experiment: Hemolytic activity assay; assay type: cell-based; conditions: 20 μM
Description: In this assay, 1% Triton X-100, which causes 100% hemolysis of horse blood erythrocytes, was used as a positive control to indicate complete cell lysis. DW solution served as a negative control, indicating no hemolytic activity.

NSCLC cells [3] = experiment: Transwell migration assay; assay type: cell-based, human; conditions: Transwell 8 μm pores, 10 μM
Protocol: (§2) Cell migration and invasion were assessed using Transwell chambers with 8 μm pores (BD Biosciences). Cancer cells (2 × 10^4) were seeded in serum-free medium in the upper chamber, while medium containing 10% FBS was placed in the lower chamber. Matrigel-coated upper chambers were used for invasion assays. Following incubation, the migratory and invasive cells were fixed, stained with crystal violet, and imaged under a light microscope.

NSCLC cells [4] = experiment: Transwell invasion assay (Matrigel-coated); assay type: cell-based, human; conditions: 10 μM
Protocol: as §2

[5] = test system: cellular vimentin in lung cancer cells; experiment: Vimentin immunofluorescence staining; assay type: cell-based, human; conditions: 10 μM MP28, immunofluorescence
lung cancer cells [6] = experiment: Wound-healing assay; assay type: cell-based, human; conditions: more pronounced at 24 h
Protocol: For the wound-healing assays, cancer cells were grown to >90% confluence in 6-well plates, and scratches were created using a pipette tip. After washing, the cells were incubated in a medium with 10% FBS for 18 h and 24 h. Wound closure was monitored using an inverted phase-contrast microscope (CKX53, Olympus, Shinjuku, Tokyo, Japan), and migration was quantified by measuring the distance between wound edges at multiple sites.

A549 cells = experiment: Annexin V/PI staining, flow cytometry; assay type: cell-based, human; conditions: A549, upper end of the increase (20 μM)
Protocol: (§3) The treated cells (1 × 10^6) were harvested, washed with PBS, and collected by centrifugation. Cells were stained with Annexin V and propidium iodide (PI) solution (556547; BD Biosciences, San Jose, CA, USA), followed by incubation at 37 °C for 15 min. […] As a negative control, z-VAD-FMK was added to each experimental condition according to the manufacturer’s instructions (ab65615; caspase 9 FITC staining kit). The cells were resuspended in 300 μL of a washing buffer and were analyzed by a flow cytometer (Accuri C6 Plus; BD Biosciences, San Jose, CA, USA).

H1299 cells = experiment: Annexin V/PI staining, flow cytometry; assay type: cell-based, human
Protocol: as §3

H460 cells = experiment: Annexin V/PI staining, flow cytometry; assay type: cell-based, human
Protocol: as §3

[7] = test system: caspase-9 in NSCLC cells (A549, H460, H1299); experiment: Active caspase-9 (FITC-LEHD-FMK) staining; assay type: cell-based, human
Protocol: as §3

[8] = test system: A549 xenograft in BALB/c nude mice; experiment: A549 xenograft tumor growth; assay type: in vivo, mouse; conditions: 20 mg/kg intratumorally, every other day, six injections, subcutaneous A549
Protocol: (§4) Xenograft tumors were generated by subcutaneous injection of A549 lung cancer cells (1 × 10^6 cells/100 µL) into the right flanks of BALB/c female nude mice (5 weeks of age, n = 20). […] The control mice were injected with equal volumes of DW. The tumor size was measured using a caliper (calculated volume = shortest diameter^2 × […]) at 2- or 3-day intervals. The methods were performed in accordance with the relevant guidelines and regulations and were approved by the Animal Care and Use Committee (IACUC) of the National Marine Biodiversity Institute of Korea (Approval No.: MAB-004; approval date: 2 December 2024).

[9] = Body weight in the A549 xenograft model; assay type: in vivo, mouse; conditions: 20 mg/kg intratumorally, six injections, during the treatment period
Protocol: as §4

CC(C)C[C@H](NC(=O)[C@H](Cc1c[nH]c2ccccc12)NC(=O)[C@@H]1CCCN1C(=O)[C@H](CCCCN)NC(=O)[C@H](CCCCN)NC(=O)[C@H](CS)NC(=O)[C@@H](N)CS)C(=O)N[C@@H](CCCNC(=N)N)C(=O)N[C@@H](CS)C(=O)N[C@@H](Cc1c[nH]c2ccccc12)C(=O)N[C@@H](CCCNC(=N)N)C(=O)N[C@H](C(=O)N[C@@H](CS)C(=O)N[C@@H](CC(C)C)C(=O)N1CCC[C@H]1C(=O)N[C@@H](CO)C(=O)N[C@@H](CCCNC(=N)N)C(=O)N[C@@H](Cc1c[nH]c2ccccc12)C(=O)N[C@@H](CCC(N)=O)C(=O)N[C@@H](CCCNC(=N)N)C(=O)N[C@@H](CCC(=O)O)C(=O)N[C@@H](CCCNC(=N)N)C(=O)N[C@@H](Cc1ccccc1)C(=O)NCC(=O)N[C@@H](CCCNC(=N)N)C(=O)N[C@@H](CCCCN)C(=O)N[C@@H](CS)C(N)=O)[C@@H](C)O [MP28] (H-CCKKPWLRCWRTCLPSRWQRERFGRKC-NH2; N-terminus assumed)
colony formation (long term cell proliferation) [1]: markedly reduced cell growth
morphological changes (lung cancer cells [2]): morphological changes from a spindle to a cobblestone-like shape
hemolysis (in words) (horse blood erythrocytes): no or minimal hemolysis
migratory capacity (NSCLC cells [3]): significantly reduced
invasive capacity (NSCLC cells [4]): significantly reduced
cellular vimentin level [5]: decreased the levels of cellular vimentin
residual wound area versus control (lung cancer cells [6]): larger residual wound areas
percentage of apoptotic cells (A549 cells): 15.6%
percentage of apoptotic cells (H1299 cells; H1299, lower end of the increase (10 μM as read from the text)): 3.1%
percentage of apoptotic cells (H1299 cells; H1299, upper end of the increase (20 μM)): 17.8%
percentage of apoptotic cells (H460 cells; H460, lower end of the increase (10 μM as read from the text)): 7.5%
percentage of apoptotic cells (H460 cells; H460, upper end of the increase (20 μM)): 19.2%
caspase-9 activation ([7]; 10 μM MP28 for 3 h, NSCLCs, FITC fluorescence microscopy and flow cytometry): triggered caspase-9 activation
induction of cleaved caspase-9 ([7]; A549 and H460 cells (wild-type p53)): more rapid and robust induction of cleaved caspase-9
induction of cleaved caspase-9 ([7]; H1299 cells (p53-deficient)): weaker activation signal
tumor growth versus control [8]: tumor growth was significantly slower
body weight versus control [9]: No significant loss of body weight
